From the supplement of paper PMC10627819

Tested on: B. subtilis 168
Experiment: fitness (endpoint OD595 vs no drug) (fraction); higher = more growth
Outline: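 Volumes were 30 µl per well, or 55 µl for S. pneumoniae, in 384-well plates inoculated at OD595 0.01. Media were TSB, LB Lennox or CY at 37 °C, and OD595 was read every 30 min for 14 h with first-reading background subtraction. Fitness is the ratio of optical density at stationary-phase entry to the robust mean of no-drug controls. That ratio is capped at 1.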

N[C@@H]1CONC1=O [Cycloserine D] + CCC(C)C1C(=O)NC(=C)C(=O)NC(C(=O)NC(CSCC(C(=O)N1)NC(=O)/C(=C/C)/NC(=O)C(C(C)CC)N)C(=O)NC2C(SCC(NC(=O)CNC(=O)C3CCCN3C2=O)C(=O)NC(CCCCN)C(=O)NC4C(SCC(NC(=O)CNC(=O)C(NC(=O)C(NC(=O)C(NC(=O)CNC4=O)C)CC(C)C)CCSC)C(=O)NC(CC(=O)N)C(=O)NC(CCSC)C(=O)NC(CCCCN)C(=O)NC5C(SCC6C(=O)NC(C(=O)NC(CSC(C(C(=O)N6)NC(=O)C(NC5=O)C)C)C(=O)NC(CO)C(=O)NC(C(C)CC)C(=O)NC(CC7=CN=CN7)C(=O)NC(C(C)C)C(=O)NC(=C)C(=O)NC(CCCCN)C(=O)O)CC8=CN=CN8)C)C)C)CC(C)C [Nisin]
fitness (first compound 0.125 µg/mL, partner 0.5 µg/mL, main component drawn): 0.926 | fitness (first compound 0.125 µg/mL, partner 1 µg/mL, main component drawn): 0.888 | fitness (first compound 0.125 µg/mL, partner 1.25 µg/mL, one replicate, main component drawn): ≥ 1 | fitness (first compound 0.125 µg/mL, partner 1.6 µg/mL, one replicate, main component drawn): 0.654 | fitness (first compound 0.125 µg/mL, partner 2 µg/mL, main component drawn): 0.589 | fitness (first compound 0.125 µg/mL, partner 2.5 µg/mL, one replicate, main component drawn): 0.708 | fitness (first compound 0.125 µg/mL, partner 3.2 µg/mL, one replicate, main component drawn): 0.0215 | fitness (first compound 0.125 µg/mL, partner 4 µg/mL, one replicate, main component drawn): 0.0688 | fitness (first compound 0.125 µg/mL, partner 5 µg/mL, one replicate, main component drawn): 0.137 | fitness (first compound 0.125 µg/mL, partner 6.4 µg/mL, one replicate, main component drawn): 0.0306 | fitness (first compound 0.125 µg/mL, partner 8 µg/mL, one replicate, main component drawn): 0.0472 | fitness (first compound 0.125 µg/mL, partner 16 µg/mL, one replicate, main component drawn): 0.0248 | fitness (first compound 0.25 µg/mL, partner 0.5 µg/mL, main component drawn): 0.867 | fitness (first compound 0.25 µg/mL, partner 1 µg/mL, main component drawn): 0.824 | fitness (first compound 0.25 µg/mL, partner 1.25 µg/mL, one replicate, main component drawn): ≥ 1 | fitness (first compound 0.25 µg/mL, partner 1.6 µg/mL, one replicate, main component drawn): 0.681 | fitness (first compound 0.25 µg/mL, partner 2 µg/mL, main component drawn): 0.601 | fitness (first compound 0.25 µg/mL, partner 2.5 µg/mL, one replicate, main component drawn): 0.698 | fitness (first compound 0.25 µg/mL, partner 3.2 µg/mL, one replicate, main component drawn): 0.0139 | fitness (first compound 0.25 µg/mL, partner 4 µg/mL, one replicate, main component drawn): 0.0497 | fitness (first compound 0.25 µg/mL, partner 5 µg/mL, one replicate, main component drawn): 0.0686 | fitness (first compound 0.25 µg/mL, partner 6.4 µg/mL, one replicate, main component drawn): 0.0459 | fitness (first compound 0.25 µg/mL, partner 8 µg/mL, one replicate, main component drawn): 0.0297 | fitness (first compound 0.25 µg/mL, partner 16 µg/mL, one replicate, main component drawn): 0.0048 | fitness (first compound 0.5 µg/mL, partner 0.5 µg/mL, main component drawn): 0.878 | fitness (first compound 0.5 µg/mL, partner 1 µg/mL, main component drawn): 0.81 | fitness (first compound 0.5 µg/mL, partner 1.25 µg/mL, one replicate, main component drawn): 0.985 | fitness (first compound 0.5 µg/mL, partner 1.6 µg/mL, one replicate, main component drawn): 0.721 | fitness (first compound 0.5 µg/mL, partner 2 µg/mL, main component drawn): 0.606 | fitness (first compound 0.5 µg/mL, partner 2.5 µg/mL, one replicate, main component drawn): 0.341 | fitness (first compound 0.5 µg/mL, partner 3.2 µg/mL, one replicate, main component drawn): 0.0205 | fitness (first compound 0.5 µg/mL, partner 4 µg/mL, one replicate, main component drawn): 0.041 | fitness (first compound 0.5 µg/mL, partner 5 µg/mL, one replicate, main component drawn): 0.0366 | fitness (first compound 0.5 µg/mL, partner 6.4 µg/mL, one replicate, main component drawn): 0.017 | fitness (first compound 0.5 µg/mL, partner 8 µg/mL, one replicate, main component drawn): 0.0245 | fitness (first compound 0.5 µg/mL, partner 16 µg/mL, one replicate, main component drawn): 0.0169

N[C@@H]1CONC1=O [Cycloserine D] + CN(C)C(=O)C(CCN1CCC(O)(c2ccc(Cl)cc2)CC1)(c1ccccc1)c1ccccc1 [Loperamide]
fitness (first compound 0.125 µg/mL, partner 50 µg/mL): 0.0169 | fitness (first compound 0.125 µg/mL, partner 100 µg/mL): 0.0259 | fitness (first compound 0.25 µg/mL, partner 50 µg/mL): 0.0651 | fitness (first compound 0.25 µg/mL, partner 100 µg/mL): 0.0243 | fitness (first compound 0.5 µg/mL, partner 50 µg/mL): 0.0491 | fitness (first compound 0.5 µg/mL, partner 100 µg/mL): 0.0094

N[C@@H]1CONC1=O [Cycloserine D] + CO[C@@H]1[C@@H](OC(N)=O)[C@@H](O)[C@H](Oc2ccc3c(O)c(NC(=O)c4ccc(O)c(CC=C(C)C)c4)c(=O)oc3c2C)OC1(C)C [Novobiocin]
fitness (first compound 0.125 µg/mL, partner 0.0125 µg/mL): 0.987 | fitness (first compound 0.125 µg/mL, partner 0.025 µg/mL): 0.957 | fitness (first compound 0.125 µg/mL, partner 0.05 µg/mL): ≥ 1 | fitness (first compound 0.125 µg/mL, partner 0.1 µg/mL, one replicate): 0.906 | fitness (first compound 0.125 µg/mL, partner 0.125 µg/mL, one replicate): 0.871 | fitness (first compound 0.125 µg/mL, partner 0.2 µg/mL, one replicate): 0.921 | fitness (first compound 0.125 µg/mL, partner 0.25 µg/mL, one replicate): 0.908 | fitness (first compound 0.125 µg/mL, partner 0.5 µg/mL, one replicate): 0.605 | fitness (first compound 0.25 µg/mL, partner 0.0125 µg/mL): 0.943 | fitness (first compound 0.25 µg/mL, partner 0.025 µg/mL): 0.957 | fitness (first compound 0.25 µg/mL, partner 0.05 µg/mL): 0.994 | fitness (first compound 0.25 µg/mL, partner 0.1 µg/mL, one replicate): 0.995 | fitness (first compound 0.25 µg/mL, partner 0.125 µg/mL, one replicate): 0.962 | fitness (first compound 0.25 µg/mL, partner 0.2 µg/mL, one replicate): ≥ 1 | fitness (first compound 0.25 µg/mL, partner 0.25 µg/mL, one replicate): 0.852 | fitness (first compound 0.25 µg/mL, partner 0.5 µg/mL, one replicate): 0.632 | fitness (first compound 0.5 µg/mL, partner 0.0125 µg/mL): 0.922 | fitness (first compound 0.5 µg/mL, partner 0.025 µg/mL): 0.913 | fitness (first compound 0.5 µg/mL, partner 0.05 µg/mL): 0.992 | fitness (first compound 0.5 µg/mL, partner 0.1 µg/mL, one replicate): ≥ 1 | fitness (first compound 0.5 µg/mL, partner 0.125 µg/mL, one replicate): 0.967 | fitness (first compound 0.5 µg/mL, partner 0.2 µg/mL, one replicate): 0.952 | fitness (first compound 0.5 µg/mL, partner 0.25 µg/mL, one replicate): 0.958 | fitness (first compound 0.5 µg/mL, partner 0.5 µg/mL, one replicate): 0.544

N[C@@H]1CONC1=O [Cycloserine D] + C[C@H]1COc2c(N3CCN(C)CC3)c(F)cc3c(=O)c(C(=O)O)cn1c23 [Levofloxacin]
fitness (first compound 0.125 µg/mL, partner 0.001 µg/mL, one replicate): 0.979 | fitness (first compound 0.125 µg/mL, partner 0.002 µg/mL): 0.93 | fitness (first compound 0.125 µg/mL, partner 0.0039 µg/mL): 0.92 | fitness (first compound 0.125 µg/mL, partner 0.0078 µg/mL, one replicate): 0.898 | fitness (first compound 0.125 µg/mL, partner 0.0312 µg/mL): 0.0375 | fitness (first compound 0.125 µg/mL, partner 0.0625 µg/mL): 0.0466 | fitness (first compound 0.125 µg/mL, partner 0.125 µg/mL): 0.0546 | fitness (first compound 0.25 µg/mL, partner 0.001 µg/mL, one replicate): 0.973 | fitness (first compound 0.25 µg/mL, partner 0.002 µg/mL): 0.921 | fitness (first compound 0.25 µg/mL, partner 0.0039 µg/mL): 0.902 | fitness (first compound 0.25 µg/mL, partner 0.0078 µg/mL, one replicate): 0.863 | fitness (first compound 0.25 µg/mL, partner 0.0312 µg/mL): 0.0356 | fitness (first compound 0.25 µg/mL, partner 0.0625 µg/mL): 0.0536 | fitness (first compound 0.25 µg/mL, partner 0.125 µg/mL): 0.0482 | fitness (first compound 0.5 µg/mL, partner 0.001 µg/mL, one replicate): 0.987 | fitness (first compound 0.5 µg/mL, partner 0.002 µg/mL): 0.965 | fitness (first compound 0.5 µg/mL, partner 0.0039 µg/mL): 0.995 | fitness (first compound 0.5 µg/mL, partner 0.0078 µg/mL, one replicate): 0.968 | fitness (first compound 0.5 µg/mL, partner 0.0312 µg/mL): 0.0328 | fitness (first compound 0.5 µg/mL, partner 0.0625 µg/mL): 0.0466 | fitness (first compound 0.5 µg/mL, partner 0.125 µg/mL): 0.0559
